Data from patent US8729125B2, “Ophthalmic compositions and methods for treating eyes” (Allergan, Inc., priority 2004, dated 2014).
Counter-ions that a name gives are not always drawn. Like-named read-outs stand apart in the source and are kept apart here.

Experiments:
[1] = Component compatibility with stabilized chlorine dioxide preservative; type: physicochemical
Protocol: A composition including betaine and stabilized chlorine dioxide, as a preservative, was tested for component compatibility. […] Thus, betaine is not useful with certain preservatives, such as stabilized chlorine dioxide. However, betaine may advantageously be employed as a compatible solute in ophthalmic compositions which use other preservative systems, or which are free of preservatives, for example, in single or unit-dose applications.

[2] = system: JNK; experiment: Beadlyte Cell Signaling Assay, phosphorylated:total JNK; type: cell-based, human; conditions: 2 mM, Beadlyte method, FIG. 3
Protocol: (§1) A series of primary sub-confluent corneal epithelial cultures (grown for 12 to 14 days, about 4−5×10^5 cells/well) were washed three times with […] buffered saline (PBS) and switched to an Earle's Balanced Salt Solution (EBSS, 300 mOsmols/kg) for 24 hours before treatment. The corneal epithelial cells were cultured for 1 hour in an equal volume (2.0 mL/well) of EBSS media or 400 mOsmols/kg media by adding 53 mM NaCl or sucrose, with either L-carnitine inner salt, betaine hydrochloride, erythritol, or xylitol (all at a concentration of 2 mM) that were pre-added 60 minutes before adding NaCl or sucrose. Samples without these osmoprotectants were also prepared and tested.
(§2) The adherent cells were lysed in Beadlyte® Buffer B (included in the Beadlyte® Cell Signaling buffer kit, Upstate Biotechnology, Lake Placid, N.Y.) containing an EDTA-free protease inhibitor cocktail tablet (Roche Applied Science, Indianapolis, Ind.) for 15 minutes. The cell extracts were centrifuged at 12,000×g for 15 minutes at room temperature and the supernatants were stored at −80° C. until they were analyzed by Western blot analysis. The total protein concentrations of the cell extracts were determined using a Micro BCA protein assay kit (Pierce, Rockford, Ill.).
In another series of experiments, the Beadlyte® Cell Signaling Assay was used. This assay is a fluorescent bead-based sandwich immunoassay. Each sample (10 μg/25 μL) was pipetted into a well of a 96-well plate and incubated with 25 μL of diluted 5× beads coupled to phospho-JNK, phospho-ERK, phospho-p38 or total JNK, or total ERK, or total p38 specific capture antibodies overnight. […]
The beads were washed and mixed with biotinylated specific reporter antibodies for phospho-MAPK or total-MAPK, followed by streptavidin-phycoerythrin. The amount of total or phospho-MAPK was then quantified by the Luminex 100™ system (Luminex, Austin, Tex.). Fifty events per bead were read, and the data output obtained from the Bio-Plex Manager software were exported to Microsoft Excel® for further analysis. […]

[3] = system: corneal epithelial cells; experiment: Trans-epithelial electrical resistance (TEER) of layered air-lift corneal epithelial cultures exposed to hypertonic fluid; type: cell-based, rabbit; conditions: for Osmoprotective benefit on TEER relative to hypertonic control, in words: 2 mM, 400 mOsmols/kg, 22 hours; for Concentration dependent effect on % TEER relative to the isotonic control: different concentrations, TEER measured 0 to 24 hours, FIG. 6
Excerpt: In this experiment, corneal epithelial cells were isolated from the rabbit eye and grown under conditions so that they differentiate into a layered “air-lift” culture that includes basal, wing, and squamous cells. As they grow and differentiate, these cultures developed tight junctions between cells that provide the basis for a trans-epithelial electrical resistance (TEER) across the cell layers between the apical and basal surfaces. The TEER value is a sensitive measure of cell growth, differentiation and health.
After 5 days in culture during which the layered structure forms, different culture wells were exposed to hypertonic fluid (400 mOsmols/kg) with or without addition of one of 6 candidate compatible solutes at a low concentration (2 mM). The TEER was then measured after 22 hours of exposure. The TEER value was expressed as a percentage of the TEER value obtained from a similar culture under isotonic (300 mOsmol/kg) conditions.
Example 1 is repeated except that different concentrations of each of the candidate materials are used, and the TEER is measured at various times from 0 to 24 hours.
As in Example 1, the TEER variable is represented as % TEER relative to the isotonic control.
Example 4 was repeated except that compositions including combinations of compatible solutes were used. Compositions including only glycerol as a compatible solute were also tested.

[4] = system: phosphorylated c-jun N-terminal kinases (p-JNK1 and p-JNK2); experiment: Western blot of phosphorylated JNK1 and JNK2 in primary corneal epithelial cultures under hyperosmolar stress; type: cell-based, human; conditions: 2 mM
[5] = system: ERK MAP Kinase; experiment: Beadlyte Cell Signaling Assay, phospho:total ERK MAP kinase; type: cell-based, human; conditions: 2 mM, Beadlyte method, FIG. 5
Protocol: as §1, §2
In another series of experiments, the Beadlyte® Cell Signaling Assay was used. This assay is a fluorescent bead-based sandwich immunoassay. […]

Row | Structure (SMILES) | Compatibility with stabilized chlorine dioxide (Purite) preservative in a composition [1] | Compatibility with stabilized chlorine dioxide (Purite) preservative in a composition ([1]; listed as betaine) | Amount of phospho-total JNK relative to the hypertonic control [2] | Osmoprotective benefit on TEER relative to hypertonic control, in words [3] | Concentration dependent effect on % TEER relative to the isotonic control [3] | Levels of p-JNK1 and p-JNK2 (Western blot) in 300 mOsmols/kg cultures ([4]; 300 mOsmols/kg EBSS media) | JNK activation (levels of p-JNK1 and p-JNK2, Western blot intensity) compared to 400 mOsmols/kg media alone ([4]; pre-added 60 minutes, 1 hour in 400 mOsmols/kg media) | Amount of ERK (phospho:total) relative to the hypertonic control [5]
1 | C[N+](C)(C)CC(=O)O [Betaine, trimethyl glycine] | incompatible | not fully compatible | – | – | – | – | – | –
2 | C[N+](C)(C)C[C@H](O)CC(=O)[O-] [Carnitine, L-carnitine inner salt] | – | – | reduced | produced the most benefit | dose-related response | less robust effect | definite decrease | –
3 | OC[C@@H](O)[C@@H](O)CO [Erythritol] | – | – | reduced | best results among the polyols tested | dose-related response | – | – | reduced
4 | O[C@H]1[C@H](O)[C@@H](O)[C@H](O)[C@@H](O)[C@H]1O [Myo-Inositol] | – | – | – | good results | – | – | – | –
5 | OC[C@@H](O)[C@H](O)[C@@H](O)CO [Xylitol] | – | – | reduced | good results | – | – | – | reduced
